The results in this text go back to ChEMBL document CHEMBL5303304, “EUbOPEN Chemogenomics Library - IncuCyte” (2023).

Common to all, as to format: toxicity, cell-based
One series concerns HEK-293T. Put plainly: Incucyte cell viability with HEK293T. Particulars: human, 10 µM, compound concentration 10 uM.
For a further series, the system named is Fibroblast. Put plainly: Incucyte cell viability with human fibroblast. As to conditions: 10 µM, compound concentration 10 uM.
A further series relates to U2OS. Nature of the series: Incucyte cell viability with U2OS. As to conditions: human, 10 µM, compound concentration 10 uM.
Note: unitless GR value; below 1 slowed growth and below 0 cell loss.

As for `FC(F)(F)c1ccc(CNc2ccc(Cc3c[nH]c4ncc(Cl)cc34)cn2)cn1` [PEXIDARTINIB], the “Growth Rate” value in the series on HEK-293T (0 h, replicate number 2) is listed as -0.38; with Fibroblast (0 h, replicate number 1) it was -1; with Fibroblast (6 h, replicate number 1), 0.64; with Fibroblast (6 h, replicate number 2), 0.13; with Fibroblast (12 h, replicate number 1) it was 0.87; with Fibroblast (12 h, replicate number 2), 0.34. The “Growth Rate” value is given as 0.9 with Fibroblast (18 h, replicate number 2); 0.95 in the series on U2OS (24 h, replicate number 1); 0.98 in the series with U2OS (24 h, replicate number 2).

`NCc1ccc(OCCCc2sc(-c3ccc4c(c3)/C(=N/Nc3nc5ccccc5s3)CCC4)nc2C(=O)O)cc1`: the “Growth Rate” value with HEK-293T (0 h, replicate number 1) is reported as 0.54; with HEK-293T (0 h, replicate number 2), -0.79; in the series with Fibroblast (0 h, replicate number 2), -0.83; in the series on Fibroblast (6 h, replicate number 1) it was 0.94; in the series with U2OS (0 h, replicate number 1), 0.77; with U2OS (6 h, replicate number 1), 0.23. Moreover, the “Growth Rate” value in the series with U2OS (12 h, replicate number 1) is 0.44; in the series with U2OS (12 h, replicate number 2), 0.7; with U2OS (18 h, replicate number 1) it was 0.63; with U2OS (18 h, replicate number 2) it was 0.72; in the series with U2OS (24 h, replicate number 1) it was 0.58; with U2OS (24 h, replicate number 2), 0.74.

For the compound `CC(C)(C)c1cc(NC(=O)c2csc(Nc3ccc(Cl)cc3)n2)no1`, the “Growth Rate” value in the series on HEK-293T (0 h, replicate number 1) is recorded as 0.27; with HEK-293T (0 h, replicate number 2), -0.44; with HEK-293T (6 h, replicate number 2) it was 0.84; with HEK-293T (12 h, replicate number 2), 0.99; in the series with HEK-293T (18 h, replicate number 1), 0.94; with HEK-293T (24 h, replicate number 1) it was 0.97. Also, the “Growth Rate” value is given as -1 in the series on Fibroblast (0 h, replicate number 1); 0.89 in the series on Fibroblast (6 h, replicate number 1); 0.46 in the series on Fibroblast (12 h, replicate number 2); 0.74 in the series with Fibroblast (18 h, replicate number 2); 0.8 in the series with Fibroblast (24 h, replicate number 1); 0.87 with Fibroblast (24 h, replicate number 2). Besides, the “Growth Rate” value with U2OS (24 h, replicate number 1) is recorded as -0.59.

Turning to `O=c1cc(-c2ccccc2)oc2c1ccc1ccccc12` [ALPHA-NAPHTHOFLAVONE], the “Growth Rate” value in the series with HEK-293T (6 h, replicate number 1) amounted to 0.31; with HEK-293T (6 h, replicate number 2), 0.53; in the series with HEK-293T (12 h, replicate number 2), 0.81; with HEK-293T (18 h, replicate number 1), 0.95; in the series with HEK-293T (18 h, replicate number 2) it was 0.8; with HEK-293T (24 h, replicate number 2), 0.88. Further, the “Growth Rate” value in the series on Fibroblast (0 h, replicate number 1) is 0.97; in the series on Fibroblast (24 h, replicate number 1), 0.65; in the series with U2OS (0 h, replicate number 2) it was -0.73; with U2OS (6 h, replicate number 1), -0.07; in the series with U2OS (6 h, replicate number 2), 0.41; in the series on U2OS (12 h, replicate number 1) it was 0.67. Moreover, the “Growth Rate” value was determined as 0.63 with U2OS (12 h, replicate number 2); 0.92 in the series on U2OS (18 h, replicate number 1); 0.66 in the series on U2OS (18 h, replicate number 2).

Regarding `Oc1cc2c(cc1O)CN(C(=S)NCCc1ccc(Cl)cc1)CCC2` [CAPSAZEPINE], the “Growth Rate” value in the series with HEK-293T (6 h, replicate number 1) is on record as -0.22; with HEK-293T (6 h, replicate number 2), -0.37; in the series with HEK-293T (12 h, replicate number 1), 0.04; with HEK-293T (12 h, replicate number 2), 0.11; in the series on HEK-293T (18 h, replicate number 1), 0.54; with HEK-293T (18 h, replicate number 2), 0.51. Further, the “Growth Rate” value was 0.55 in the series with HEK-293T (24 h, replicate number 2); -0.78 in the series on Fibroblast (0 h, replicate number 2); -0.98 in the series on Fibroblast (6 h, replicate number 2); -0.04 with Fibroblast (12 h, replicate number 2); -0.47 with Fibroblast (18 h, replicate number 1); 0.44 with Fibroblast (18 h, replicate number 2). Moreover, the “Growth Rate” value with Fibroblast (24 h, replicate number 2) is 0.57; in the series with U2OS (0 h, replicate number 2), -0.38; in the series on U2OS (6 h, replicate number 2), 0.57; in the series with U2OS (12 h, replicate number 1) it was 0.86; in the series with U2OS (12 h, replicate number 2) it was 0.84; with U2OS (18 h, replicate number 1), 0.88. Further, the “Growth Rate” value in the series with U2OS (18 h, replicate number 2) was found to be 0.75; in the series on U2OS (24 h, replicate number 1), 0.77; with U2OS (24 h, replicate number 2) it was 0.93.

Turning to `Cn1c(C2(NC(=O)c3ccc(NCC4CCCCC4)nc3)CCC2)nc2ccc(/C=C/C(=O)O)cc21` [BI 7656], the “Growth Rate” value in the series with HEK-293T (0 h, replicate number 2) was -0.78; in the series with HEK-293T (6 h, replicate number 1), 0.41; in the series on HEK-293T (12 h, replicate number 1), 0.81; in the series on Fibroblast (6 h, replicate number 2), -0.44; in the series with Fibroblast (12 h, replicate number 2), 0.82; in the series on Fibroblast (24 h, replicate number 1), 0.94. Further, the “Growth Rate” value with Fibroblast (24 h, replicate number 2) worked out at 0.72; with U2OS (0 h, replicate number 1), 0.79; in the series on U2OS (0 h, replicate number 2), 0.24; in the series on U2OS (6 h, replicate number 1), 0.81; with U2OS (12 h, replicate number 1), 0.92; in the series with U2OS (24 h, replicate number 1) it was 0.92. Further, in the series on U2OS (24 h, replicate number 2), the “Growth Rate” value was 0.93.

As for `O=c1[nH]c(CS[C@H]2CC[C@H](O)CC2)nc2cc(OCC3CC3)cc(F)c12`, the “Growth Rate” value in the series on HEK-293T (0 h, replicate number 1) came out at 0.63; in the series with HEK-293T (18 h, replicate number 2) it was 1; in the series with HEK-293T (24 h, replicate number 1) it was 0.87; in the series with HEK-293T (24 h, replicate number 2) it was 0.94; in the series with Fibroblast (0 h, replicate number 2), 0.47; in the series on Fibroblast (6 h, replicate number 2), 0.65. For the same compound, the “Growth Rate” value is recorded as 0.67 in the series on Fibroblast (12 h, replicate number 2); -0.28 with U2OS (0 h, replicate number 1); 0.9 in the series with U2OS (0 h, replicate number 2); 0.81 in the series on U2OS (6 h, replicate number 1); 0.82 with U2OS (6 h, replicate number 2); 0.45 in the series with U2OS (12 h, replicate number 1). The “Growth Rate” value in the series with U2OS (12 h, replicate number 2) is listed as 0.73; in the series with U2OS (18 h, replicate number 1), 0.92; with U2OS (18 h, replicate number 2) it was 0.66; in the series on U2OS (24 h, replicate number 1), 0.98; with U2OS (24 h, replicate number 2) it was 0.64.

With `Cc1nc2ccc(Cl)cc2c(-c2ccccc2)c1CC(=O)O.Cl`, the “Growth Rate” value came out at 0.38 with HEK-293T (0 h, replicate number 1); 0.53 in the series on Fibroblast (12 h, replicate number 2); 0.88 in the series with Fibroblast (18 h, replicate number 2); 0.96 in the series on Fibroblast (24 h, replicate number 2); 0.45 in the series on U2OS (0 h, replicate number 1); 0.43 with U2OS (6 h, replicate number 1). In addition, the “Growth Rate” value with U2OS (12 h, replicate number 2) was found to be 0.93.

Regarding `CS(=O)(=O)NC(=O)CCC/C=C\C[C@H]1C(=O)C[C@@H](O)[C@@H]1/C=C/[C@@H](O)COc1ccccc1` [SULPROSTONE], the “Growth Rate” value was 0.99 with HEK-293T (0 h, replicate number 1); 0.72 in the series on HEK-293T (0 h, replicate number 2); 0.91 in the series with HEK-293T (6 h, replicate number 2); 0.92 in the series with HEK-293T (12 h, replicate number 1); 0.99 in the series on HEK-293T (18 h, replicate number 1); -1 with Fibroblast (0 h, replicate number 1). The “Growth Rate” value is on record as -0.81 in the series with Fibroblast (0 h, replicate number 2); 0.27 with Fibroblast (6 h, replicate number 1); 0.85 with Fibroblast (6 h, replicate number 2); 0.85 in the series on Fibroblast (12 h, replicate number 1); 0.39 with Fibroblast (12 h, replicate number 2); 0.95 in the series on Fibroblast (18 h, replicate number 1). Besides, the “Growth Rate” value with Fibroblast (18 h, replicate number 2) was determined as 0.47; in the series with Fibroblast (24 h, replicate number 1) it was 0.79; in the series on Fibroblast (24 h, replicate number 2), 0.63; in the series with U2OS (0 h, replicate number 1), 0.72; in the series on U2OS (0 h, replicate number 2), 0.8; in the series on U2OS (6 h, replicate number 1) it was 0.89. Moreover, the “Growth Rate” value was found to be 0.91 with U2OS (6 h, replicate number 2); 0.97 with U2OS (12 h, replicate number 1); 0.91 in the series on U2OS (12 h, replicate number 2); 0.83 with U2OS (18 h, replicate number 1); 0.87 in the series on U2OS (24 h, replicate number 1); 0.94 in the series with U2OS (24 h, replicate number 2).
